3 compounds from patent publication EP1296995B1, “3'-PRODRUGS OF 2'-DEOXY-BETA-L-NUCLEOSIDES” (priority 2000, dated 2001) can be followed below.

Values after ≈ are worked out from the molar mass of the structure shown. “Also recorded” adds a separate entry of the source. Read-outs that look alike come from different tables or passages of the source.

One data set deals with VZV. The experiment in a line: Antiviral panel: VZV in HFF. In kind it is cell-based.
The next data set concerns EBV. The data set can be described thus: Antiviral panel: EBV in Daudi. In kind it is cell-based.
In data set [1] the test system is WHV. The data set can be described thus: Woodchuck model of chronic hepatitis B infection, 28 days. In kind it is in vivo, woodchucks.
The test system of data set [2] is WHV. The data set can be described thus: Woodchuck model, twelve-week study. In kind it is in vivo, woodchucks. Conditions: 1 mg/kg/day. As to the method:
WHV DNA levels were determined by quantitative PCR.

For the next data set, the system named is HepG2 cells. The data set can be described thus: in vitro. From the text:
(§1) These studies included analysis of lactic acid production, mtDNA content and determination of changes in morphology (e.g., loss of cristae, matrix dissolution and swelling, and lipid droplet formation) of mitochondrial ultrastructure.

Data set [3] concerns Salmonella typhimurium strains TA98, TA100, TA1535, and TA1537 and escherichia coli strain WP2uvrA. The data set can be described thus: S. typhimurium and E. coli plate incorporation mutation assay. In kind it is cell-based. On the procedure: L-dC was tested for its potential to cause mutation at the histidine operon of Salmonella typhimurium strains TA98, TA100, TA1535, and TA1537 and at the tryptophan opeton of escherichia coli strain WP2uvrA. L-dC at concentrations of […] plus positive and negative controls were tested. […] After incubation for approximately 68 hours, L-dC and controls were evaluated for the number of revertants per plate and integrity of the background microcolony lawn.

A further data set relates to HIV-1. Conditions: read-out: EC50 HIV-1 (PBMC).
The conditions of data set [4]: monkey, in vivo, 10 mg/kg.
The next data set deals with 2.2.15. The experiment in a line: Cytotoxicity in 2.2.15 cells.
The test system of data set [5] is HBV. The data set can be described thus: Antiviral activity against HBV in 2.2.15 cells (reduction of HBV DNA).
Data set [6] deals with HBV. The settings on record: human, 2.2.15 cells.
A short description of data set [7]: in vitro. Conditions: human, hepg2 cells.
Excerpt: as §1

A short description of data set [8]: in vitro. The settings on record: human, bone marrow cfu-gm.
Data set [9] can be described thus: in vitro. The settings on record: human, bone marrow bfu-e.

The CC50 is the concentration that lowers cell viability or growth by half. As usually defined, the EC50 is the concentration at which the effect is half-maximal. Usually AUC(0-t) stands for the area under the concentration-time curve up to a stated or last time point. For `Nc1ccn([C@@H]2C[C@@H](O)[C@H](CO)O2)c(=O)n1` [L-dC, 2'-deoxy-β-L-cytidine], the “EC50 VZV (HFF)” value in the data set with VZV was found to be 18.6 mg/L (≈ 81.9 µM). Moreover, the “EC50 EBV (Daudi)” value in the data set on EBV was above 50 mg/L. In addition, the body weight entry in the data set with WHV [1] (compared to control animals, 28 days 0.01-10 mg/kg/day) was “no weight loss”. Further, the toxicity result with WHV [1] (four-week treatment phase and eight-week follow-up, 0.01-10 mg/kg/day orally) was “no drug-related toxicity; also recorded: No toxicity was observed”; in the data set on WHV [2] (12-week treatment phase and 12-week follow-up), “no drug-related toxicity”. Also, the end-of-treatment liver biopsies entry in the data set on WHV [2] (12 weeks) is reported as “no histomorphological evidence of fatty changes (microvesicular steatosis); also recorded: no evidence of fatty change (microvesicular steatosis)”. The “Lipid Droplet Formation” value with HepG2 cells is reported as “negative”. Besides, the CC50 is above 2000 µM in the data set with HepG2 cells (HepG2 cells, after 14 days of treatment); above 2000 µM in the data set on 2.2.15 (2.2.15); 3000 ± 96 µM in the data set with 2.2.15 (2.2.15 cells, 50% inhibition of neutral red dye uptake, combination study). In addition, the mutagenicity entry in data set [3] (concentrations up to 5000 µg/plate) is “not mutagenic”; in data set [3] (concentrations up to 5000 mg/plate, with and without rat liver S-9), “no evidence of mutagenicity”. For the same compound, the concentration for a half-maximal effect (EC50) in the data set with HIV-1 was above 200 µM. Also, the AUC(0-t) in [4] (iv) turned out to be 81.1 µM·h; in data set [4] (po), 13.7 µM·h. Also, the “S.I. (CC50/EC90)” value in the data set with HBV [5] (2.2.15 cells) is given as 2,727. Moreover, the “HBV replication returned to 50% of pretreatment levels” value in the data set with HBV [5] (viral rebound after drug withdrawal, 2.2.15 cells) is on record as at most 18 day post-treatment.
For orientation: EC90 means the concentration needed for an effect of 90%. Consider `Cc1cn([C@@H]2C[C@@H](O)[C@H](CO)O2)c(=O)[nH]c1=O` [L-dT, β-L-2'-deoxythymidine, reference compound], for which, in the data set with HBV [6], the “S.I. (CC50/EC90)” value is given as 2,518. The EC90 in the data set on HBV [5] (10-fold reduction of HBV virion DNA levels, combination study) came out at 1.2 ± 0.1 µM.
In general, IC50 refers to the point on the concentration scale where inhibition reaches its midpoint. Higher therefore signals a need for much substance. As for `Cc1cn([C@H]2C[C@H](N=[N+]=[N-])[C@@H](CO)O2)c(=O)[nH]c1=O` [ZDV, zidovudine], in “in vitro [7]”, the activity was 239 ± 34% and the activity at 336 h amounted to 119%. Also, the “Lipid Droplet Formation” value with HepG2 cells is “negative”. The “increase of lactic acid production compared to vehicle control” value with HepG2 cells (human) is given as 100%. The compound also yielded an IC50 in “in vitro [8]” of 1.8 µM. The IC50 in “in vitro [9]” was found to be 0.7 µM.
